This is an account of results in patent publication EP0525360B1, “Novel phenylacetamide derivatives and processes for the preparation thereof” (KOREA RESEARCH INSTITUTE OF CHEMICAL TECHNOLOGY, priority 1991, dated 1993).

Structures are written as SMILES. Like-named read-outs stand apart in the source and are kept apart here. Where only a bound is given, the exact number is not on record here.

Series [1] has as its system KTC-ICR mice. Kind of series: acetic acid induced writhing test. The conditions noted are these: Mus musculus; oral; 0.9% acetic acid i.p. 60 minutes later; writhings during 10 minutes; mice 20 to 25g; Examples 1 to 32. The series is classed as in vivo. On the procedure:
(§1) The KTC-ICR mice derived from Charles River Breeding Laboratory in the United States and provided by Experimental Animal Laboratory of Korea Research Institute of Chemical Technology were used as test animals. […] They were tested after having been adjusted to the testing environment for a week. Food and water were given freely; and illumination was maintained on a 12-hour cycle.
(§2) Experiments were performed in two ways: that is, the acetic acid induced writhing test and the phenyl-1,4-benzoquinone(PBQ) induced writhing test.
Solutions for the acetic acid induced writhing test were prepared by dissolving one of the end products prepared in Examples […] in a saline solution containing 1% by weight of Tween 80 to have a concentration of 5mg/mℓ and diluting it serially with the saline solution. The test solutions were administered orally in a dose of 0.3mℓ per 30g of body weight, using the 5 ICR mice for each test. 60 minutes later, 0.9% acetic acid solution was administered intraperitoneally in a dose of 0.1mℓ per 30g of body weight. 3 minutes thereafter, the number of writhings generated during a period of 10 minutes due to the administration of acetic acid was measured. For comparison purpose, initially, saline solution alone was administered orally to the control group. 60 minutes thereafter, 0.9% acetic acid solution was administered intraperitoneally to the control group.
(§3) The number of writhings suffered by the test group was compared with that of the control group; and the analgesic effect was measured in terms of the percentage of inhibition of writhing(I. W.). I. W. (%) =(A - B)/(A)x 100 [formula] A : the number of writhings suffered by the control group, B : the number of writhings suffered by the test group.
(§4) These ED50 values for the test compounds are shown in the last column of Table 1.
(In general: Writhing tests count abdominal constrictions after an irritant is injected.)

A short description of series [2]: acute toxicity test. The conditions noted are these: mouse, in vivo, po, per os, 5 weeks old, observed for 14 days.
Series [3] has as its system KTC-ICR mice. The experiment in a line: phenyl-1,4-benzoquinone(PBQ) induced writhing test. The series is classed as in vivo. To be noted: Mus musculus. Here is the method:
as §1, §2
Alternatively, solutions for the PBQ induced writhing test were prepared by dissolving one of the products synthesized in Examples 33 to 46 in a mixture of Tween 80, alcohol and distilled water (1:5:94); and administered orally to the 5 ICR mice for each test in a dose of 0.3mℓ per 30g of body weight. 60 minutes later, 0.02% PBQ solution was administered intraperitoneally in a dose of 0.1mℓ per 30g of body weight of the test animals. 5 minutes thereafter, at the temperature of 40°C, the number of writhings occurred during a period of 5 minutes due to the PBQ solution administered was measured. For comparison, only the mixture of Tween 80, alcohol and distilled water was administered orally to the control group; and, after 60 minutes, the PBQ solution was administered intraperitoneally to the control group in the same manner as mentioned above.
as §3, §4

The subject of series [4] is test animals. The experiment in a line: Behavior analysis (side-effect or toxicity scores). The series is classed as in vivo. Also on record: key to Sedation / Dyspnoea / Vasodilation / Convulsion / Salivation / Urination: behavior score; higher number = greater side effects. To be noted: behavior score; for Convulsion / Salivation / Urination: normal value 0; for Dyspnoea / Ptosis / Sedation / Vasodilation: normal value 4. From the text:
In order to monitor a harmful side-effect or toxicity of the compounds having the formula(I), various behavioral changes in the test animals were observed. […] The higher the number is, the greater the side effects are.

Series [5] has as its system mice. The experiment in a line: Tail-flick test (radiant heat). To be noted: p. o. Type of series: in vivo. On the procedure: Radiant heat was applied using a beam of high-intensity light focused on a tail spot. The response time, defined as the interval between the onset of the stimulus and the tail flick, was measured electronically(to the nearest 0.1 second). The beam intensity was set at a level giving a mean control reaction time of 3.8±0.4 seconds. […] The percentage of inhibition was determined by the following equation: Inhibition(%) =(Reaction time of the treated group - Reaction time of the control group)/(Reaction time of the control group)x 100 [formula]
In general terms: In hot-plate and tail-flick tests a longer latency is read as antinociception.

[6] abbreviates: oral, 0.02% PBQ i.p. 60 minutes later, writhings during 5 minutes, mice 10 to 15g, Examples 33 to 46.

For `Cc1ccc(CCCNC(=O)Cc2ccc(OCCN)c(F)c2)cc1` [Example 11], it took a dose of 0.01 mg/kg to reach the 50% effect level in series [1] (ED50). Moreover, the LD50 at 336 h in series [2] (5 ICR female mice, read-out: LD50(female)) turned out to be 322 mg/kg; in series [2] (5 ICR male mice, read-out: LD50(male)), 500 mg/kg.
With `Cc1ccc(CCCNC(=O)Cc2ccc(OCCN)c(N)c2)cc1C` [Example 37, N-{3-(3,4-dimethylphenyl)propyl}-4-(2-aminoethoxy)-3-aminophenylacetamide], the 50% effect level in series [3] (setting [6]) (ED50) was put at a dose of 22.7 mg/kg. In series [4] (dose 6.7mg/Kg), this compound had a Convulsion of 0, a Salivation of 0, a Urination of 0 and a Dyspnoea of 4. In series [4] (dose 6.7mg/Kg), this compound gave a Ptosis of 4, a Sedation of 4 and a Vasodilation of 4. In series [4] (dose 20mg/Kg), this compound had a Convulsion of 0, a Salivation of 0, a Urination of 0 and a Dyspnoea of 4. Besides, in series [4] (dose 20mg/Kg), the Ptosis is listed as 5, the Sedation stood at 4 and the Vasodilation was 4. In series [4] (dose 60mg/Kg), this compound registered a Convulsion of 0, a Salivation of 0, a Urination of 0 and a Dyspnoea of 4. In series [4] (dose 60mg/Kg), the Ptosis is listed as 6, the Sedation came to 6 and the Vasodilation came out at 4.
In the case of `Cc1cccc(CCCNC(=O)Cc2ccc(OCCN)c(N)c2)c1` [Example 38, N-{3-(3-methylphenyl)propyl}-4-(2-aminoethoxy)-3-aminophenylacetamide], the ED50 in series [3] (setting [6]) stood at 22.1 mg/kg. In series [4] (dose 6.7mg/Kg), the Convulsion was 0, the Salivation is on record as 0, the Urination was 0 and the Dyspnoea is reported as 4. Further, in series [4] (dose 6.7mg/Kg), the Ptosis came to 4, the Sedation turned out to be 4 and the Vasodilation came out at 4. In series [4] (dose 20mg/Kg), this compound showed a Convulsion of 0, a Salivation of 0, a Urination of 0 and a Dyspnoea of 4. Also, in series [4] (dose 20mg/Kg), the Ptosis is given as 5, the Sedation was 4 and the Vasodilation is 4. In addition, in series [4] (dose 60mg/Kg), the Convulsion is given as 0, the Salivation was 0, the Urination was found to be 0 and the Dyspnoea worked out at 7. Further, in series [4] (dose 60mg/Kg), the Ptosis was found to be 7, the Sedation is on record as 6 and the Vasodilation is 4.
Compound `NCCOc1ccc(CC(=O)NCCCc2ccc(Cl)cc2)cc1N` [Example 39, N-{3-(4-chlorophenyl)propyl}-4-(2-aminoethoxy)-3-aminophenylacetamide] returned an ED50 in series [3] (setting [6]) of 77.6 mg/kg. In series [4] (dose 10mg/Kg), this compound displayed a Convulsion of 0, a Salivation of 0, a Urination of 0 and a Dyspnoea of 4. In series [4] (dose 10mg/Kg), this compound returned a Ptosis of 4, a Sedation of 4 and a Vasodilation of 4. For the same compound, in series [4] (dose 25mg/Kg), the Convulsion is given as 0, the Salivation is 0, the Urination is on record as 0 and the Dyspnoea is on record as 4. In series [4] (dose 25mg/Kg), this compound had a Ptosis of 4, a Sedation of 4 and a Vasodilation of 4. In series [4] (dose 50mg/Kg), the Convulsion was 0, the Salivation came out at 0, the Urination was 0 and the Dyspnoea is 4. In series [4] (dose 50mg/Kg), the Ptosis was determined as 4, the Sedation is recorded as 4 and the Vasodilation is 4.
In turn, `NCCOc1ccc(CC(=O)NCCCc2ccc(F)cc2)cc1N` [Example 40, N-{3-(4-fluorophenyl)propyl}-4-(2-aminoethoxy)-3-aminophenylacetamide] yielded an ED50 in series [3] (setting [6]) of 37.8 mg/kg. Besides, in series [4] (dose 10mg/Kg), the Convulsion amounted to 0, the Salivation was 0, the Urination turned out to be 0 and the Dyspnoea turned out to be 4. In series [4] (dose 10mg/Kg), this compound showed a Ptosis of 4, a Sedation of 4 and a Vasodilation of 4. In series [4] (dose 25mg/Kg), this compound yielded a Convulsion of 0, a Salivation of 0, a Urination of 0 and a Dyspnoea of 4. In series [4] (dose 25mg/Kg), the Ptosis is on record as 4, the Sedation is listed as 4 and the Vasodilation is given as 4. In series [4] (dose 50mg/Kg), the Convulsion was found to be 0, the Salivation came to 0, the Urination is on record as 0 and the Dyspnoea was determined as 4. For the same compound, in series [4] (dose 50mg/Kg), the Ptosis is recorded as 4, the Sedation worked out at 4 and the Vasodilation was determined as 4. Further, in series [5] (dose 100 mg/Kg), the “Inhibition(%)” value came out at 50%.
For `NCCOc1ccc(CC(=O)NCCCc2ccc(Cl)c(Cl)c2)cc1N` [Example 41, N-{3-(3,4-dichlorophenyl)propyl}-4-(2-aminoethoxy)-3-aminophenylacetamide], the ED50 in series [3] (setting [6]) is 7.18 mg/kg. Further, in series [4] (dose 25mg/Kg), the Convulsion turned out to be 0, the Salivation turned out to be 0, the Urination amounted to 0 and the Dyspnoea came out at 4. In series [4] (dose 25mg/Kg), this compound displayed a Ptosis of 4, a Sedation of 4 and a Vasodilation of 4. In series [4] (dose 50mg/Kg), this compound had a Convulsion of 0, a Salivation of 0, a Urination of 0 and a Dyspnoea of 4. In series [4] (dose 50mg/Kg), this compound showed a Ptosis of 4, a Sedation of 5 and a Vasodilation of 4. For the same compound, in series [4] (dose 100mg/Kg), the Convulsion worked out at 0, the Salivation was 0, the Urination came out at 0 and the Dyspnoea was determined as 5. Besides, in series [4] (dose 100mg/Kg), the Ptosis was 5, the Sedation is reported as 6 and the Vasodilation is on record as 4.
As for `CCCCCCCC/C=C\CCCCCCCC(=O)NCc1ccc(OCCN)c(OC)c1` [NE-21610, reference compound], the ED50 in series [3] (po, writhing test, inducer (acetic acid or PBQ) not stated for this reference) was above 300 mg/kg. In series [4] (dose 10mg/Kg), the Convulsion is 0, the Salivation is given as 0, the Urination is on record as 0 and the Dyspnoea is recorded as 4. Moreover, in series [4] (dose 10mg/Kg), the Ptosis was 4, the Sedation is on record as 4 and the Vasodilation was 4. In series [4] (dose 25mg/Kg), the Convulsion is given as 0, the Salivation is 0, the Urination is reported as 0 and the Dyspnoea worked out at 4. Further, in series [4] (dose 25mg/Kg), the Ptosis is recorded as 4, the Sedation is reported as 4 and the Vasodilation came to 4. In series [4] (dose 50mg/Kg), this compound gave a Convulsion of 0, a Salivation of 0, a Urination of 0 and a Dyspnoea of 4. In series [4] (dose 50mg/Kg), this compound gave a Ptosis of 5, a Sedation of 5 and a Vasodilation of 4. Also, in series [4] (dose 100mg/Kg), the Convulsion stood at 2, the Salivation is given as 0, the Urination worked out at 0 and the Dyspnoea was 6. In series [4] (dose 100mg/Kg), this compound registered a Ptosis of 7, a Sedation of 7 and a Vasodilation of 4. For the same compound, the “Inhibition(%)” value in series [5] (dose 200 mg/Kg) is 50%.

For orientation: ED50 means the dose at which the effect has come halfway, by size or by number of responders. The term LD50 denotes the dose expected to kill half of the subjects tested.
